{"source": "patent US20070140979A1", "about": "“Method for accelerating the rate of mucociliary clearance” (BAYER AKTIENGESELLSCHAFT, priority 1998, published 2007)", "molecular_target": "Bovine chymotrypsin (Bos taurus, UniProt P00766)", "test": "Inhibition of chymotrypsin, Ki", "format": "biochemical", "conditions": "Chymotrypsin (5 nM)"}
{"smiles": "CC[C@H](C)[C@H](N)C(=O)N[C@@H](Cc1c[nH]cn1)C(=O)N[C@@H](CC(=O)O)C(=O)N[C@@H](Cc1ccccc1)C(=O)N[C@H]1CSSC[C@@H](C(=O)N[C@@H](C)C(=O)N[C@H](C(=O)N[C@H](C(=O)O)C(C)C)[C@@H](C)O)NC(=O)[C@H](CCCCN)NC(=O)[C@H](CCCCN)NC(=O)[C@H](CC(C)C)NC(=O)[C@@H]2CSSC[C@@H]3NC(=O)[C@H](CO)NC(=O)CNC(=O)[C@H](CC(=O)O)NC(=O)[C@H]([C@@H](C)O)NC(=O)[C@H](C(C)C)NC(=O)[C@H](CC(N)=O)NC(=O)[C@H](Cc4ccc(O)cc4)NC(=O)[C@H](Cc4c[nH]c5ccccc45)NC(=O)[C@H](Cc4c[nH]c5ccccc45)NC(=O)[C@H](CCCNC(=N)N)NC(=O)[C@@H]4CCCN4C(=O)[C@H](CCSC)NC(=O)[C@H](CO)NC(=O)[C@H](C)NC(=O)[C@H](CCCNC(=N)N)NC(=O)[C@H](CSSC[C@H](NC(=O)CNC(=O)CNC(=O)[C@H](Cc4ccc(O)cc4)NC(=O)[C@H](C(C)C)NC(=O)[C@H](Cc4ccccc4)NC(=O)[C@H](CC(C)C)NC(=O)[C@H](CCC(N)=O)NC3=O)C(=O)N[C@@H](CC(=O)O)C(=O)NCC(=O)N[C@@H](CC(N)=O)C(=O)N[C@@H](CO)C(=O)N[C@@H](CC(N)=O)C(=O)N[C@@H](CC(N)=O)C(=O)N[C@@H](Cc3ccc(O)cc3)C(=O)N[C@@H](CC(C)C)C(=O)N[C@@H]([C@@H](C)O)C(=O)N[C@@H](CCCCN)C(=O)N[C@@H](CCC(=O)O)C(=O)N[C@@H](CCC(=O)O)C(=O)N2)NC(=O)[C@H](CCCNC(=N)N)NC(=O)CNC(=O)[C@H](C(C)C)NC(=O)[C@H](C(C)C)NC(=O)[C@H](CCCCN)NC(=O)[C@H](CO)NC(=O)[C@H](C(C)C)NC(=O)[C@H](CC(C)C)NC1=O", "note": "[bikunin (7-64)]", "values": [{"measurement": "Ki", "value": 6, "unit": "nM"}]}
